In ChEMBL document CHEMBL1144675, “Stereospecific synthesis and bio-activity of novel beta(3)-adrenoceptor agonists and inverse agonists” (Bioorg Med Chem, 2008):
Activity calls are given as the source filed them. The rule behind the calls is not given here.

Assays:
[1] = molecular target: Beta-2 adrenergic receptor (Homo sapiens) (UniProt P07550); assay: Displacement of [3H]dihydroalprenolol from human adrenergic beta-2 receptor expressed in CHO cells at 10 uM; type: cell-based
[2] = molecular target: T1, Peroxisome proliferator-activated receptor alpha (Mus musculus) (UniProt P23204); assay: Agonist activity at mouse PPARalpha receptor in monkey COS7 cells assessed as activation of CAT reporter gene at 300 uM by transactivation assay relative to Wy,14-643; type: functional, cell-based; conditions: COS-7
T1 sequence (whole entry): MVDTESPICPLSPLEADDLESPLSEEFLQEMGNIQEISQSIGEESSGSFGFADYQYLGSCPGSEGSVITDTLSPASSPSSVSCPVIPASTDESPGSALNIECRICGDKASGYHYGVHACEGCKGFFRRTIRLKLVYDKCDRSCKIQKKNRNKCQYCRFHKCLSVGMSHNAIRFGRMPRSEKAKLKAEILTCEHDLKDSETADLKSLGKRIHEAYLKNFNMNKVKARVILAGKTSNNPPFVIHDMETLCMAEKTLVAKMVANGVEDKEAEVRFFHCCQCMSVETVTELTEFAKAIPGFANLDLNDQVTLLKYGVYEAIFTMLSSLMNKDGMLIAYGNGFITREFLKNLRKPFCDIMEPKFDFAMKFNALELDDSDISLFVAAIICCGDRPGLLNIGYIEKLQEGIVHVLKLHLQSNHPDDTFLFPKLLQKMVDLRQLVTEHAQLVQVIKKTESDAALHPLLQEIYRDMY

[3] = molecular target: T1, Peroxisome proliferator-activated receptor alpha (Mus musculus); assay: Agonist activity at mouse PPARalpha receptor in monkey COS7 cells assessed as activation of CAT reporter gene at 50 uM by transactivation assay relative to Wy,14-643; type: functional, cell-based; conditions: COS-7
[4] = molecular target: T2, Beta-3 adrenergic receptor (Homo sapiens, UniProt P13945); assay: Agonist activity at human adrenergic beta-3 receptor expressed in CHO cells assessed as cAMP levels by DELFIA method; type: functional, cell-based
[5] = molecular target: T1, Peroxisome proliferator-activated receptor alpha (Mus musculus); assay: Agonist activity at mouse PPARalpha receptor in monkey COS7 cells assessed as activation of CAT reporter gene at 150 uM by transactivation assay relative to Wy,14-643; type: functional, cell-based; conditions: COS-7
[6] = molecular target: Beta-1 adrenergic receptor (Homo sapiens) (UniProt P08588); assay: Displacement of [3H]dihydroalprenolol from human adrenergic beta-1 receptor expressed in CHO cells at 10 uM; type: cell-based
[7] = molecular target: Beta-3 adrenergic receptor (Rattus norvegicus) (UniProt P26255); assay: Antagonist activity at adrenergic beta-3 receptor in rat proximal colon assessed as colon motility; type: functional, tissue-based
[8] = molecular target: T1, Peroxisome proliferator-activated receptor alpha (Mus musculus); assay: Agonist activity at mouse PPARalpha receptor in monkey COS7 cells assessed as activation of CAT reporter gene at 2 uM by transactivation assay relative to Wy,14-643; type: functional, cell-based; conditions: COS-7
[9] = molecular target: T2, Beta-3 adrenergic receptor
Description: Agonist activity at human adrenergic beta3 receptor expressed in CHO cells assessed as [3H]cAMP levels by radiolabeled ligand based assay

Beta-1 adrenergic receptor (Homo sapiens), sequence (P08588 whole entry, looked up): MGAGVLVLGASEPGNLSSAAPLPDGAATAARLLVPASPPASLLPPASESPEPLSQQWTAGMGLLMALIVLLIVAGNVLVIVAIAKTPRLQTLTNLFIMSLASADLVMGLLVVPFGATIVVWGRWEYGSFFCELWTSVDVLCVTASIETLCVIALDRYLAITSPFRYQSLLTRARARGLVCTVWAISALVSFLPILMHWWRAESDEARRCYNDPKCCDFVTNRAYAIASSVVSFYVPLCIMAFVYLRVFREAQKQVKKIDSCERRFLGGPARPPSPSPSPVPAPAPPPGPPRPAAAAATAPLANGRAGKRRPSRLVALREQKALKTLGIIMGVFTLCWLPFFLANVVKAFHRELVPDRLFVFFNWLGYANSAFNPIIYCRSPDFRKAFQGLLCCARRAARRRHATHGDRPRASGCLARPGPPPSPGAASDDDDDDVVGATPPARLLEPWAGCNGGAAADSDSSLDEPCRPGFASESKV
Beta-2 adrenergic receptor (Homo sapiens), sequence (P07550 whole entry, looked up): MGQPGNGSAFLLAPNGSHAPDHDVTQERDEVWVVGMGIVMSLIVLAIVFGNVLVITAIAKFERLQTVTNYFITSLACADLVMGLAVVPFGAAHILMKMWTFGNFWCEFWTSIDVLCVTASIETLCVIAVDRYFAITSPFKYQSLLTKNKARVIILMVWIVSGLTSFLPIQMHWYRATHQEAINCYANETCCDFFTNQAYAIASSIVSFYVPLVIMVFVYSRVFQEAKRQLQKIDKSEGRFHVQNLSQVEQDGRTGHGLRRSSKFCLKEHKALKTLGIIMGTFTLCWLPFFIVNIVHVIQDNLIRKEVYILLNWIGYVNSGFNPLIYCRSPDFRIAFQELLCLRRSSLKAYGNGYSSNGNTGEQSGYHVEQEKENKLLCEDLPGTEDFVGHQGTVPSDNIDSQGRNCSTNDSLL
T2 sequence (P13945 whole entry): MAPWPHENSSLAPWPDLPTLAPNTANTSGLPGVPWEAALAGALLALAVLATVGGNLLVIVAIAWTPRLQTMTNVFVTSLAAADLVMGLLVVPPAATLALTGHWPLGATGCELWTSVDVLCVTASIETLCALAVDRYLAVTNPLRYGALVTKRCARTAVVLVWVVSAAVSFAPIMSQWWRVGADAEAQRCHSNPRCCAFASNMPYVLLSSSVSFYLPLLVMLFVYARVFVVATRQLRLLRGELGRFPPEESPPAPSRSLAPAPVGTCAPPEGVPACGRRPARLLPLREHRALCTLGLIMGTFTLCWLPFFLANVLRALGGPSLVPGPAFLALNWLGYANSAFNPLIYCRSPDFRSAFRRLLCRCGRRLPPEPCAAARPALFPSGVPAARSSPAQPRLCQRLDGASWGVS
Beta-3 adrenergic receptor (Rattus norvegicus), sequence (P26255 whole entry): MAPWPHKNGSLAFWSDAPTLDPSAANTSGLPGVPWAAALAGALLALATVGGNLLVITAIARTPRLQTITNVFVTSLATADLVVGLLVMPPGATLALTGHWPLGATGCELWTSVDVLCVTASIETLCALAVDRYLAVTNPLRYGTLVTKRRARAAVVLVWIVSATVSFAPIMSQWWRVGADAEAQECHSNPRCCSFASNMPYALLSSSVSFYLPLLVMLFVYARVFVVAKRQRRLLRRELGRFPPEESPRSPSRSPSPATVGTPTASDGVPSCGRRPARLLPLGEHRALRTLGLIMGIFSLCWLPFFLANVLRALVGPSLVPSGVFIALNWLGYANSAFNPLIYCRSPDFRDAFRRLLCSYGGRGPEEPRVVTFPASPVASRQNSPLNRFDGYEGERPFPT

Row | inhibition [1] | Activity [2] | Activity [3] | EC50 [4] | Activity [5] | inhibition [6] | Activity [7] | Activity [8] | EC50 [9] | Structure (SMILES)
1 | 1% | 1.5% | 1.6% | 2.7 nM | 1.8% | 28% |  |  |  | C[C@H](Oc1ccc(CCNC[C@H](O)c2ccccc2)cc1)C(=O)O (single isomer, unassigned)
2 |  | 86.5% |  |  |  |  |  |  |  | CC(C)(Oc1ccc(Cl)cc1)C(=O)O
3 | 1% | 3.6% | 1.3% | 136 nM | 2% | 10% | Active |  |  | C[C@@H](Oc1ccc(CCNC[C@@H](O)c2ccccc2)cc1)C(=O)O (single isomer, unassigned)
4 |  |  |  |  |  |  |  | 100% |  | Cc1cccc(Nc2cc(Cl)nc(SCC(=O)O)n2)c1C
5 | 24% | 1.8% | 2% | 4.9 nM | 1.7% | 18% |  |  |  | CC(C)(Oc1ccc(CCNCC(O)c2ccccc2)cc1)C(=O)O (racemic)
6 | 1% | 1.5% | 1.3% |  | 1.5% | 8% |  |  |  | CC(C)(Oc1ccc(CCNC[C@H](O)c2ccccc2)cc1)C(=O)O
7 | 24% | 1.8% | 1.5% | 3.8 nM | 1.9% | 37% |  |  |  | CC(Oc1ccc(CCNCC(O)c2ccccc2)cc1)C(=O)O (racemic)
8 |  | 89.9% | 12.6% |  | 11% |  |  |  |  | CCOC(=O)C(C)(C)Oc1ccc(Cl)cc1
9 | 2% | 2.6% | 1.1% | 235 nM | 1.5% | 6% |  |  |  | C[C@@H](Oc1ccc(CCNC[C@H](O)c2ccccc2)cc1)C(=O)O
10 | 5% | 2.1% | 1.7% |  | 1.5% | 13% |  |  |  | CC(C)(Oc1ccc(CCNC[C@@H](O)c2ccccc2)cc1)C(=O)O
11 | 9% | 1.8% | 1% | 181 nM | 1% | 14% | Active |  |  | C[C@H](Oc1ccc(CCNC[C@@H](O)c2ccccc2)cc1)C(=O)O
12 |  |  |  | 31 nM |  |  |  |  | 49 nM | CNC[C@H](O)c1ccc(O)c(O)c1 [EPINEPHRINE]
